# Reference: US8492521B2, “Oxidative stress responsive apoptosis inducing protein eIF5A” (priority 2008, dated 2013)
# Assays:
# [1] = test system: cultured cardiac myocytes; assay: Induction of apoptosis of cultured cardiac myocytes by recombinant eIF5A proteins (TUNEL / cardiac myosin double staining); assay type: cell-based, rat; details: recombinant protein 10 μg/mL
# [2] = test system: Quail muscle cells (ATCC; CRL-1962); assay: Apoptosis induction by recombinant eIF5A (TUNEL), quail muscle cells; assay type: cell-based; details: 10 μg/ml, normal cells, up to 72 hours
# Protocol: (§1) Quail muscle cells (ATCC; CRL-1962), HeLa cells, human hepatocellular carcinoma cells (ATCC; HB-8064), and human glioblastoma cells (ATCC; CRL-1690) were incubated on a culture slide (BD Falcon) until they were confluent. These cells were treated with a recombinant eIF5A (10 μg/ml) for a predetermined time and fixed. Terminal deoxynucleotidyl transferase nick-end-labeled (TUNEL) staining was performed in situ with an Apoptosis Detection Kit (Takara Bio Inc.).
# cardiac myocytes = assay: Electron microscopy of nuclear chromatin in cardiac myocytes; assay type: cell-based, rat
# Protocol: The cardiac myocytes were treated with recombinant eIF5A for a predetermined period. The cells were fixed in 2% glutaraldehyde, postfixed in 2% osmium tetraoxide, dehydrated in ethanol, and embedded in a resin. Ultrathin section were prepared, stained with uranyl acetate and lead citrate, and examined with an electron microscope (H-7000, HITACHI, Japan).
# [3] = test system: cultured cardiac myocytes; assay: Annexin V staining of cultured cardiac myocytes; assay type: cell-based, rat
# Protocol: Cardiac myocytes were treated with a recombinant eIF5A (RCP) for a predetermined time. The cells were incubated with biotinylated-annexin V in 1× binding buffer (Annexin V-Biotin Apoptosis Detection Kit, BioVision Inc.) for 5 min and then fixed with 2% paraformaldehyde in PBS for 15 min. After washing in PBS, the cells were incubated with streptavidin-horseradish peroxidase (Vector) for 30 min. The subsequent procedures for immunofluorescence by TSA technology were the same as for AIF. To distinguish cardiac myocytes from non-muscle cells, cells were further incubated with mouse anti-cardiac myosin (clone CMA19) mAb (Non Patent Literature 1), followed by incubation with tetramethyl rhodamine isothiocyanate (TRITC)-conjugated anti-mouse IgG antibody, and then photographed in a fluorescence microscope.
# [4] = test system: cultured cardiac myocytes; assay: Release of cytochrome c from mitochondria (Western blot of cytosolic fraction); assay type: cell-based, rat; details: peak at 48 hours
# Protocol: Cultured cardiac myocytes were treated with a recombinant eIF5A for a predetermined time. Nucleic, mitochondrial, and cytosolic fraction of the cells were prepared as described in Non Patent Literatures 1 and 2. Briefly, 3×10^6 cells were washed in PBS, and suspended in 250 μl of a lysis buffer (250 mM sucrose, 50 mM Pipes/KOH, pH7.4, 50 mM KCl, 5 mM EGTA, 2 mM MgCl2, 1 mM DTT, and 1 mM PMSF). After 30 min on ice, the cells were lysed with 40 strokes using pestle B in a Dounce homogenizer, and centrifuged at 80 g for 10 min. The pellets were collected as the nucleic fraction. Then, the supernatants were prepared from cell lysates by centrifugation at 20,000 g for 20 min. The pellets were collected as the mitochondrial fraction, and the supernatants were regarded as the cytosolic fraction. The nucleic, mitochondrial, and cytosolic fractions were subjected to Western blot analysis with rabbit anti-AIF mAb (E20; Epitomics Inc., CA, USA) or mouse anti-cytochrome c mAb (7H, 8.2; C12; Lab Vision Corp., CA, USA). The antibody-antigen complexes were developed with a chemiluminescence system using alkalinephosphatase (New England Biolabs, Inc.).
# Hela cells = assay: Apoptosis induction by recombinant eIF5A (TUNEL), HeLa cells; assay type: cell-based, human; details: 10 μg/ml, 30 to 36 hours
# Protocol: as §1
# [5] = test system: cultured cardiac myocytes; assay: Activation of caspase-3 (Western blot); assay type: cell-based, rat; details: peak at 48 hours
# [6] = test system: cultured cardiac myocytes; assay: Subcellular translocation of apoptosis-inducing factor (AIF) in cultured cardiac myocytes; assay type: cell-based, rat; details: double staining for AIF and Hoechst 33342
# Protocol: Tyramide Signal Amplification (TSA) technology was used for fluorescence (TSA™ Biotin System, NEN Life Science Products, PerkinElmer; according to the manufacture's instruction). Cardiac myocytes were treated with a recombinant eIF5A (RCP) for a predetermined time and fixed with 4% paraformaldehyde in PBS for 15 min. The cells were washed with PBS and then incubated with rabbit anti-AIF mAb (E20; Epitomics Inc.) for 1 hour. The cells were washed, then incubated with biotinylated anti-rabbit IgG antibody (Chemicon International, Inc.) for 1 hour, washed, and incubated with streptavidin-horseradish peroxidase (Vector) for 30 min. The cells were washed in TNT buffer (0.1 M Tris-HCl, pH 7.5, 0.15 M NaCl, 0.05% Tween 20) and then incubated with biotinylated-tyramide for appropriate time (3 to 10 min). The cells were washed in TNT buffer and then incubated with FITC-labeled avidin-D (Vector) for 30 min. Nuclei were stained with 1 μg·mL^−1 Hoechst 33342 (DOJINDO Laboratories, Kumamoto, Japan). Confocal laser microscopy was performed on LSM510 Laser Scanning Microscope (Zeiss).
# [7] = test system: human hepatocellular carcinoma cells (ATCC; HB-8064); assay: Apoptosis induction by recombinant eIF5A (TUNEL), hepatocellular carcinoma cells; assay type: cell-based; details: 10 μg/ml, 30 to 36 hours
# Protocol: as §1
# [8] = test system: human glioblastoma cells (ATCC; CRL-1690); assay: Apoptosis induction by recombinant eIF5A (TUNEL), glioblastoma cells; assay type: cell-based; details: 10 μg/ml, 30 to 36 hours
# Protocol: as §1
# [9] = test system: rat myocardial ischemia/reperfusion injury; assay: Rat myocardial ischemia/reperfusion injury, extent of myocardial infarction (TTC staining); assay type: in vivo; details: 1 mg/kg everyday, peritoneal, five days to the day before; 30 min ischemia, 24 hours reperfusion; control group approx. 35.6%
# Protocol: Rats (male, 250 to 280 g) were subjected to coronary artery ligation according to J. Pathol. 180, 305-310 (1996). Briefly, rats were anesthetized with sodium pentobarbital (40 mg Kg^−1, intraperitoneally), intubated, and ventilated with room air (tidal volume, 20 ml/Kg, […]) with a respirator (SN-480-7, Shinano Manufacturing Co., Ltd., Tokyo, Japan). After lateral thoracotomy and pericardiectomy, a 6-0 silk stitch was placed near the intramyocardial location of the left coronary artery beneath the left atrial appendage. Coronary artery occlusion was performed by pressing a short length of tube over the ends of the suture and clamping it firmly against the heart. Reperfusion was achieved by removing the clamp. The standard limb lead II electrocardiogram was monitored continuously. The ischemia and reperfusion of the regional myocardium were confirmed by following the changes of the ST segment level on the electrocardiogram and observing the change in the color of the myocardium.
# eIF5A is deoxyhypusinated by deoxyhypusine synthase (DHS) in the cytoplasm (deoxyhypusine eIF5A) and then hypusinated by deoxyhypusine hydroxylase (DOHH) (hypusinated eIF5A). eIF5A is further secreted extracellularly by an oxidative stress stimulus as secreted eIF5A and acquire the apoptosis-inducing activity. […]
Compound,induction of apoptosis of cultured cardiac myocytes (TUNEL and cardiac myosin double staining) [1],induction of apoptosis (TUNEL staining) [2],nuclear chromatin by electron microscopy (cardiac myocytes),induction of apoptosis by Annexin-V staining [3],cytosolic fractions of cytochrome c [4],induction of apoptosis (TUNEL staining) (Hela cells),active form of caspase-3 [5],translocation of the apoptosis-inducing factor (AIF) from the cytosol (mitochondria) to the nucleus [6],induction of apoptosis (TUNEL staining) [7],induction of apoptosis (TUNEL staining) [8],extent of myocardial infarction [9]
recombinant eIF5A (RCP): FLAG- and His-tagged human eIF5A collected from reoxygenation-conditioned PBS of transfected quail muscle cells; secreted form,potently induced apoptosis,not induced until 72 hours,hypercondensation of nuclear chromatins,further confirmed,markedly increased,induced apoptosis,markedly increased,induced translocation,induced apoptosis,induced apoptosis,
"N=C(N)NCCCCCCCN [GC7, N1-guanyl-1,7-diaminoheptane]",,,,,,,,,,,approx. 13.4%
